Measured values as given in US20040224979A1, “Treating obesity with selective androgen receptor modulators” (priority 2002, published 2004).

Legend:
leptin = experiment: Serum leptin levels in intact male rats (ELISA) after SARM treatment by osmotic pump; conditions: for Leptin, percent of control / Normalized Leptin, percent of control: control = 100%; for Normalized Leptin: serum leptin normalized to body weight; for Leptin: serum, intact male rats, 500 μg/day s.c. osmotic pump
Protocol: All doses were delivered by subcutaneous placement of Alzet osmotic pumps.
Seven, 14 and 28 days after pump implantation, animals were exsanguinated under ketamine/xylazine anesthesia. Serum was collected, separated into 10 aliquots and stored at −80° C.
Serum concentrations of testosterone (T), leptin, Insulin and IGF-1 were determined by commercially available ELISA kits.

[1] = Organ weights in intact male rats (tissue-selective anabolic activity); type: in vivo, Sprague-Dawley rats; conditions: 500 μg/day
androgen receptor (AR) = experiment: In vitro androgen receptor binding affinity
[2] = Whole body DEXA body composition (lean body mass, body fat) in ovariectomized female rats; type: in vivo, Sprague-Dawley rats; conditions: 3 mg/day s.c., 90 day time point
Protocol: Two hundred and thirty (230) female Sprague-Dawley rats (23 weeks of age) were used in these studies.
Animals were randomized (n=10 per group) into each of the treatment groups outlined in Table 2 below. Animals assigned to groups 6 through 23 were ovariectomized on day 0 of the experiment.
Drug administration with Compound VI, bicalutamide (an antiandrogen), and/or DHT commenced on day 0 or 90 with the compound of interest administered via daily subcutaneous injection (0.20 mL) and continued until day 120 or 210 of the study. Drug solutions were prepared daily by dissolving in DMSO and dilution with PEG 300. The percentage of DMSO was the same in all vehicles (17.6%), as determined based on the solubility of the test compounds.
Whole body DEXA images were collected up to 120 or 210 days after ovariectomy, as described in Table 2. Lean body mass (LBM), fat mass (FM) and total body mass (TBM) were determined at each time point.

SMILES	decrease of serum leptin levels compared with the vehicle control (leptin; 2 w)	decrease of serum leptin levels compared with the vehicle control (leptin; 4 w)	Leptin, percent of control (leptin; 1 w)	Normalized Leptin, percent of control (leptin; 1 w)	Leptin, percent of control (leptin; 2 w)	Normalized Leptin, percent of control (leptin; 2 w)	Leptin, percent of control (leptin; 4 w)	Normalized Leptin, percent of control (leptin; 4 w)	Normalized Leptin (leptin; 1 w)	Normalized Leptin (leptin; 2 w)	Normalized Leptin (leptin; 4 w)	Leptin (leptin; 1 w)	Leptin (leptin; 2 w)	Leptin (leptin; 4 w)	changes in organ weight [1]	in vitro androgen receptor (AR) binding affinity (androgen receptor (AR))	decrease in body fat as compared to the ovariectomized (OVX) control group [2]	increase in lean mass as compared to the ovariectomized (OVX) control group [2]
C[C@](O)(COc1ccc(F)cc1)C(=O)Nc1ccc([N+](=O)[O-])c(C(F)(F)F)c1 [Compound VII]	36%	22%	(84%)	(81%)	(64%)	(63%)	(77%)	(78%)	5.80 ± 1.73 (pg/ml)/BW (g)	5.47 ± 1.03 (pg/ml)/BW (g)	13.82 ± 1.17 (pg/ml)/BW (g)	1.45 ± 0.47 ng/mL	1.68 ± 0.29 ng/mL	4.89 ± 0.61 ng/mL	tissue-selective anabolic activity			
CC(=O)Nc1ccc(OC[C@](C)(O)C(=O)Nc2ccc([N+](=O)[O-])c(C(F)(F)F)c2)cc1 [Compound VI]			(96%)	(93%)	(107%)	(104%)	(104%)	(105%)	6.65 ± 1.07 (pg/ml)/BW (g)	8.99 ± 0.99 (pg/ml)/BW (g)	18.7 ± 4.2 (pg/ml)/BW (g)	1.71 ± 0.31 ng/mL	2.81 ± 0.29 ng/mL	6.62 ± 1.12 ng/mL	tissue-selective anabolic activity	high	3.6%	9%
CCC(=O)O[C@H]1CC[C@H]2[C@@H]3CCC4=CC(=O)CC[C@]4(C)[C@H]3CC[C@]12C [TP, testosterone propionate, reference compound]			(102%)	(93%)	(84%)	(92%)	(92%)	(90%)	6.67 ± 1.96 (pg/ml)/BW (g)	7.04 ± 1.97 (pg/ml)/BW (g)	16.0 ± 1.7 (pg/ml)/BW (g)	1.74 ± 0.53 ng/mL	2.19 ± 0.67 ng/mL	5.89 ± 0.77 ng/mL				
